Laboratory results: US20230077514A1, “METHODS FOR MODULATING CALORIE CONSUMPTION” (Duke University, priority 2020, published 2023)
Entries after “also recorded” stand apart in the source; their conditions may differ.

How the values were obtained:
P2 purinoceptor = test: Vagal nerve recording with P2 purinoceptor antagonist; assay type: in vivo, mice; conditions: PPADS 25 mg/kg
From the text: Margolskee, J. Biol. Chem. 277(1): 1-4 (2002); Lu et al., Nature Com. 10(1): (2019). […] (FIG. 33, FIG. 36, and FIG. 37).

cervical vagus nerve = test: Whole nerve electrophysiology of the cervical vagus during duodenal sugar perfusion; assay type: in vivo, mice; conditions: for vagal response (firing) to intraduodenal sugar vs baseline: wild-type mice, sucrose 300 mM, D-glucose 150 mM, fructose 150 mM, galactose 150 mM, maltodextrin 8%, α-MGP 150 mM, sucralose 15 mM, acesulfame K 15 mM, saccharin 15 mM
Procedure: FIG. 1. […] Model: sugars are perfused into the duodenal lumen while nerve activity is recorded from the cervical vagus of anesthetized wild-type mice.
The proximal duodenum was perfused with sugars, thus bypassing any gustatory or gastric activation. Sugars were tested based on the following properties: both caloric content and sweet taste (sucrose [300 mM], D-glucose [150 mM], […], galactose [150 mM]), calorie-only (maltodextrin [8%], alpha-methylglucopyranoside (α-MGP) [150 mM]), or taste-only (sucralose [15 mM], acesulfame-K [15 mM], saccharin [15 mM]) (FIG. 1, FIG. 2, FIG. 3, FIG. 4).

[1] = system: murine small intestinal organoids; test: Glutamate release assay on murine small intestinal organoids; assay type: cell-based, mouse; conditions: sucrose 300 mM, α-MGP 150 mM, sucralose 15 mM; for glutamate concentration in the supernatant after stimulation: PBS control 2.632 ± 1.280; for glutamate release compared to PBS: p < 0.05
Procedure: Slc5a1+ Cck-GFP cells express transcripts for the vesicular glutamate transporters Slc17a6, Slc17a7, Slc17a8 and the excitatory neurotransmitter transporters Slc1a1, Slc1a2, and Slc1a3 (FIG. 4). […] A glutamate release assay was performed on murine small intestinal organoids to determine if glutamate release was stimuli specific (FIG. 24-left). α-MGP was used for a caloric stimulus with no sweet taste, because it is not metabolized once it enters the cell and thus allowed for isolation of cell entry. After nutrient stimulation, the glutamate concentration in the supernatant was 2.632 ± 1.280 ng/µL for PBS control, 13.460 ± 1.724 ng/µL for sucrose [300 mM], 18.183 ± 7.904 ng/µL for α-MGP [150 mM], and 6.053 ± 1.169 ng/µL for sucralose [15 mM].

duodenal Cck cells = test: Vagal recording with intraluminal 532 nm laser silencing of duodenal Cck (neuropod) cells; assay type: in vivo; conditions: Cck_Halo mice; sucrose 300 mM, α-mgp 150 mM, sucralose 15 mM
Procedure: FIG. 9. Model: intraluminal 532 nm laser activates NpH3 chloride channels to silence duodenal Cck cells in CckCRE_NpH3 mice.
Using whole nerve electrophysiology of the cervical vagus nerve, it was confirmed that vagal activity increases in the presence of luminal sugars. Kaelberer et al., Science 361 (6408) (2018). The proximal duodenum was perfused with sugars, thus bypassing any gustatory or gastric activation. Sugars were tested based on the following properties: both caloric content and sweet taste (sucrose [300 mM], D-glucose [150 mM], fructose [150 mM], galactose [150 mM]), calorie-only (maltodextrin [8%], alpha-methylglucopyranoside (α-MGP) [150 mM]), or taste-only (sucralose [15 mM], acesulfame-K [15 mM], saccharin [15 mM]) (FIG. 1, FIG. 2, FIG. 3, FIG. 4). […] Intraluminal application of the 532 nm laser eliminated the vagal response to sucrose [300 mM], α-mgp [150 mM], and sucralose [15 mM] (n ≥ 5, p < 0.001) (FIG. 10 and FIG. 11; laser activation and wild-type controls). Thus, neuropod cells are required to sense both the calorie and taste properties of sugar and communicate these signals onto vagal neurons.
Cck neuropod cells in the duodenum express receptors for fatty acids (FIG. 69), analyzed by bulk sequencing Cck-positive and Cck-negative epithelial cells in the duodenum of CckGFP mice. Thus, CCK cells in the duodenum may signal the presence of fatty acids to the vagus nerve. To test this, the silencing optogenetic channel was expressed in Cck cells of mice. […] In the duodenum, there is overlap in cells expressing CCK and the vesicular glutamate transporter 1 (Vglut1), required for release of the neurotransmitter glutamate. To test whether glutamate is required as a signaling molecule for fat transduction to the vagus nerve, a cocktail of glutamate receptor inhibitors was perfused through the duodenum of wild type mice. Blockade of ionotropic and metabotropic glutamate receptors blocked vagal firing elicited by glutamate (FIG. 71). […] In an initial baseline test, mice freely explore an arena for 20 minutes, during which their position in the arena measured. […]

human duodenal organoids = test: Glutamate release assay on human duodenal organoids; assay type: cell-based; conditions: sucrose 300 mM, α-MGP 150 mM, sucralose 15 mM, n = 1 human
[2] = Two-bottle choice between iso-sweet sucrose and sucralose; assay type: in vivo, mice
Procedure: Domingos et al., Nature Neurosci. […] Behav. […] Bennink et al., J. Nucl. […] Perez et al., Pharmacol. Biochem. Behav. […] Thus, a goal of this study was to determine if synaptic gut-brain neurotransmission drives sugar preference.
CckCRE_NpH3 mice (n = 8) and littermate controls (n = 5) were implanted with the flexible fiberoptic and given the choice between iso-sweet sucrose [300 mM] and sucralose [15 mM] in a one-hour choice assay (FIG. 38 and FIG. 53). […] Whether the caloric neurotransmitter glutamate was contributing to the sucrose preference was tested.

[3] = target: T1, sweet taste receptor T1R2/3 (Mus musculus, UniProt Q925D8+Q925I4); test: Receptor pharmacology in whole nerve (vagal) electrophysiology: sweet taste receptor block; assay type: in vivo, mice; conditions: gurmarin 7 µM
T1 construct: from tissue; host or cells: living mouse: duodenal lumen perfused, cervical vagus nerve recorded
T1 sequence (Q925I4 20-843): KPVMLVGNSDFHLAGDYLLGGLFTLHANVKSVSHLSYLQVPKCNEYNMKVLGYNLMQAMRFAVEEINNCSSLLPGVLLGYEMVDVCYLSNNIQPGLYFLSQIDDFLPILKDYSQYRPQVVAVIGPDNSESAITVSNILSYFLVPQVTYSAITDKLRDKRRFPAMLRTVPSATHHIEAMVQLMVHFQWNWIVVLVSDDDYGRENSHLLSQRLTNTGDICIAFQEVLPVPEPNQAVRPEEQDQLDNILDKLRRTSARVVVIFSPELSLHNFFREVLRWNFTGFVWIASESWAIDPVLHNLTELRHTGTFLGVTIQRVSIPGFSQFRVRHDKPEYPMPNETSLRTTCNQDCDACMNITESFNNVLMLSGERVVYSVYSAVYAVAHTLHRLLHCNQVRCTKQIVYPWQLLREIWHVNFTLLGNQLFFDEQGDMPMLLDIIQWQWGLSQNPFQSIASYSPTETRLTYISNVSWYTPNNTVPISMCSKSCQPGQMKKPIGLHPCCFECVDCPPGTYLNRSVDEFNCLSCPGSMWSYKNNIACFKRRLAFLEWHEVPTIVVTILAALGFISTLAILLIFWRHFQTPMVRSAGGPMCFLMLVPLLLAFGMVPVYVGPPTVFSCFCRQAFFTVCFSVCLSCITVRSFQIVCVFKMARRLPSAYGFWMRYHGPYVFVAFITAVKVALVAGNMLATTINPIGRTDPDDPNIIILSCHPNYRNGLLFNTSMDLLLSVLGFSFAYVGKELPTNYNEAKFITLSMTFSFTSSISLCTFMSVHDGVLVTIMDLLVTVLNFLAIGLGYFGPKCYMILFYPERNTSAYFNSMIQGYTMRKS
T1 sequence (Q925D8 21-858): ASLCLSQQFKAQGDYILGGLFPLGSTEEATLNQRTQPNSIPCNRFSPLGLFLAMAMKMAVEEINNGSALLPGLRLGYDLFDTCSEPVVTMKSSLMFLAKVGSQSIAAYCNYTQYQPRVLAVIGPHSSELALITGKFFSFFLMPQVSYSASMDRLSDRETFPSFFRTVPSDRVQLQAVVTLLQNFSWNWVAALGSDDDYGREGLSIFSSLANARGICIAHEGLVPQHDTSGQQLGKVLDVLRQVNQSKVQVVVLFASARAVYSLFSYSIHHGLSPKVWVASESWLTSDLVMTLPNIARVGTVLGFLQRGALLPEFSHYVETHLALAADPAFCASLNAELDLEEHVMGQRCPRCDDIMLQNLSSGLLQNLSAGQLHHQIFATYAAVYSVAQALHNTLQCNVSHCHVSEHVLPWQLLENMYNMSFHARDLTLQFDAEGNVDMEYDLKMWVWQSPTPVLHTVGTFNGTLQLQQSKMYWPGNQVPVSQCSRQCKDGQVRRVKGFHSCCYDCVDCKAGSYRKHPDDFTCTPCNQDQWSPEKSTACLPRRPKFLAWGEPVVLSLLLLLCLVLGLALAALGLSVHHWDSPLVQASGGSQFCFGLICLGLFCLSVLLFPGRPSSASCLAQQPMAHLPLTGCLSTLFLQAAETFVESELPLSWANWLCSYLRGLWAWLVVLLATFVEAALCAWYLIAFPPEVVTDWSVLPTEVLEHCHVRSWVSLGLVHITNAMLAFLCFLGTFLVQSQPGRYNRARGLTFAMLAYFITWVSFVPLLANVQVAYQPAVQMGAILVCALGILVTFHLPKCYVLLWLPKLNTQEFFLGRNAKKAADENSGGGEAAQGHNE
From the text: (FIG. 21 and FIG. 22), showing neuropod cells use two distinct receptor mechanisms to transduce caloric and non-caloric sugar signals to the vagus nerve.

## Cc1nc(N=Nc2ccc(S(=O)(=O)O)cc2S(=O)(=O)O)c(COP(=O)(O)O)c(C=O)c1O [PPADS, pyridoxalphosphate-6-azophenyl-2’,4'-disulfonic acid]
P2 purinoceptor; sucralose 15 mM
  time to peak vagal firing rate to sucralose: prolonged
P2 purinoceptor; sucralose 15 mM, wild-type mice
  effect on vagal response to sucralose: significantly attenuates; also recorded: abolished
P2 purinoceptor; sucrose 300 mM
  effect on vagal response to sucrose: not affected
P2 purinoceptor; α-MGP 150 mM
  effect on vagal response to α-MGP: not affected

## CC1=CC(=O)[N-]S(=O)(=O)O1.[K+] [acesulfame K]
Cervical vagus nerve
  vagal response (firing) to intraduodenal sugar vs baseline: responds significantly

## O=C(CO)[C@@H](O)[C@H](O)[C@H](O)CO [fructose]
Cervical vagus nerve; fructose 600 mM and 1 M, n.s.
  vagal response at high concentrations: blunted vagal response
Cervical vagus nerve
  vagal response (firing) to intraduodenal sugar vs baseline: no significant

## O=C[C@H](O)[C@@H](O)[C@@H](O)[C@H](O)CO [galactose]
Cervical vagus nerve
  vagal response (firing) to intraduodenal sugar vs baseline: elicited significant vagal firing

## O=C1NS(=O)(=O)c2ccccc21 [saccharin]
Cervical vagus nerve
  vagal response (firing) to intraduodenal sugar vs baseline: no significant

## OC[C@H]1O[C@@](CO)(O[C@H]2O[C@H](CO)[C@@H](O)[C@H](O)[C@H]2O)[C@@H](O)[C@@H]1O [sucrose]
Cervical vagus nerve
  vagal response (firing) to intraduodenal sugar vs baseline: responds significantly
[1]
  glutamate concentration in the supernatant after stimulation: 13.460 ± 1.724 ng/µL
  glutamate release compared to PBS: significantly higher; also recorded: elicit significant release of glutamate
Duodenal Cck cells
  vagal response with Cck cells silenced by 532 nm laser: eliminated
Human duodenal organoids
  glutamate release compared to PBS control: elicited glutamate release; also recorded: release significant amounts of glutamate
[2]; CckCRE_NpH3 mice, control 473 nm laser, one-hour choice
  preference for sucrose: 90.8% ± 3.74%
[2]; CckCRE_NpH3 mice, silencing 532 nm laser, one-hour choice vs sucralose 15 mM
  preference for sucrose: 58.9% ± 3.92%
[2]; negative genotype littermate controls, 473 nm
  preference for sucrose: 84.2% ± 6.30%
[2]; negative genotype littermate controls, 532 nm
  preference for sucrose: 87.7% ± 2.21

## COC1OC(CO)C(O)C(O)C1O (stereo not drawn) [α-MGP, alpha-methylglucopyranoside]
Cervical vagus nerve
  vagal response (firing) to intraduodenal sugar vs baseline: responds significantly
[1]
  glutamate concentration in the supernatant after stimulation: 18.183 ± 7.904 ng/µL
  glutamate release compared to PBS: significantly higher
[1]; listed as aMGP
  glutamate release compared to PBS: elicit significant release of glutamate
Duodenal Cck cells
  vagal response with Cck cells silenced by 532 nm laser: eliminated
Human duodenal organoids
  glutamate release compared to PBS control: elicited glutamate release
Human duodenal organoids; listed as aMGP
  glutamate release compared to PBS control: release significant amounts of glutamate

## gurmarin
[3]; sucralose 15 mM
  effect on vagal firing elicited by sucralose: abolished; also recorded: inhibited
[3]; sucrose 300 mM
  effect on vagal response to sucrose: did not affect
[3]; α-MGP 150 mM
  effect on vagal response to α-MGP: did not affect
